Laboratory results published in patent publication US11786555B2, “RAR selective agonists in combination with immune modulators for cancer immunotherapy” (IO THERAPEUTICS, INC., priority 2017, dated 2023).

Tests used:
[1] = system: H929 cells and CD138+ primary MM cells; experiment: qRT-PCR of B cell and PC markers in MM cells, liquid or BM stroma co-culture; type: cell-based, human; conditions: absence of stroma (Liquid), 1 μM for 5 days
Protocol: FIG. 3A-H depicts the relative concentration of plasma markers BCL6 (FIG. 3A and E), BLIMP-1 (FIG. 3B and F), XBPS-1 (FIG. 3C and G), and CHOP (FIG. 3D and H) in multiple myeloma (MM) cell lines H929 (FIG. 3A-D) or CD138+ MM cells from three different patient samples (FIG. 3E-H) incubated for 5 days either in the absence of stroma (Liquid), with or without AGN (RA receptor antagonist AGN194310, 1 μM), or co-cultured with BM mesenchymal cells (Stroma), with or without R115 (CYP26 inhibitor R115866, 1 μM) or IRX (CYP26-resistant retinoid IRX5183, 1 μM). Expression in untreated liquid conditions was set at 1. Data are representative of 3 independent experiments with similar results and represent the mean ±SEM. *P≤0.05 and **P≤0.01, by repeated-measures 1-way ANOVA for determination of statistical significance between groups; P values were corrected for multiple comparisons using Dunnett's test. Ctrl, control; max, maximum.
(§1) Coculture experiments. 24-well plates were coated with 0.1% gelatin in PBS for 30 min at 37° C. The gelatin solution was removed, and the stromal cells were cultured overnight at a density of 5×10^4 cells/well to obtain a confluent monolayer. At that time, MM cell lines or primary MM cells (1×10^5 in 2 ml) were added to the stroma cultures. The stroma cocultures were incubated at 37° C. in RPMI containing 10% FCS, L-glutamine, and P/S, with or without AGN194310 (1 μM for 5 days), R115866 (1 μM for 5 days), IRX5183 (1 μM for 5 days), or BTZ (2.5 nM for 48 hr).
(§2) qRT-PCR. Total RNA was extracted using the RNeasy Mini Kit (QIAGEN) according to the manufacturer's instructions. cDNA was synthesized by reverse transcription using the iScript cDNA Synthesis Kit (Bio-Rad). qRT-PCR was performed with iTaq SYBR Green Supermix (Bio-Rad) using sequence specific primers. Gene expression was normalized to GAPDH, and relative quantification was calculated using ΔΔCt. All experiments were performed in duplicate and run on the Bio-Rad CFX96 machine.
The BM microenvironment (also called “niche”) limits PC differentiation by modulating retinoid signaling. A population of MM progenitors, phenotypically similar to B cells, is intrinsically resistant to BTZ and contributes to MRD and relapse. To investigate whether the BM niche plays a role in determining the phenotype of MM cells, the mRNA expression of B cell and PC markers in MM H929 cell lines (FIG. 3A-D) and MM CD138+ primary cells (FIG. 3E-H) was analyzed following co-culture with mouse BM stroma using human-specific primers. […] In contrast, co-culture of MM cells with BM stroma decreased the mRNA expression of B lymphocyte-induced maturation protein 1 (BLIMP1) and spliced X box-binding protein 1 (XBP1s) (FIG. 3B, C, F, G), which are critical mediators of PC differentiation.
The BM niche regulates hematopoietic stem cell (HSC) differentiation by expressing the retinoid-inactivating enzyme CYP26. CYP26 enzymes were highly expressed in BM mesenchymal cells, while their expression was barely detectable in MM cells. Since retinoid signaling promotes PC differentiation and potentiates Ig secretion, it was determined whether stromal CYP26 is responsible for inducing a B cell phenotype in MM cells. To this end, co-culture conditions were treated with the CYP26 inhibitor R115866 (R115) or the CYP26-resistant RA receptor α-selective (RARα-selective) retinoid IRX5183 (IRX).

MM cells = experiment: surface CD138 expression of MM cells by flow cytometry; type: cell-based, human; conditions: absence of stroma, 1 μM
Protocol: as §1
Flow cytometry. Following treatment, MM cells were collected, washed with PBS, and stained for 15 min at room temperature with phycoerythrin-conjugated (PE-conjugated) anti-CD138. Cells were washed to remove unbound antibody and evaluated in a FACSCalibur system (BD Biosciences). Stromal cells were identified by GFP expression, and viable cells were identified using 7-aminoactinomycin D (7-AAD). To calculate cell numbers, live GFP-cells were normalized to calibration beads.
Expression of CD138 is a hallmark of normal PC differentiation as well MM PCs.

[2] = system: H929 cells and primary CD138+ MM cells; experiment: clonogenic or cellular recovery of MM cells after BTZ treatment; type: cell-based, human; conditions: absence of stroma, 1 μM for 5 days, then BTZ 2.5 nM
Protocol: FIG. 4A-B depicts the clonogenic recovery (CFU) of H929 cells (FIG. 4A) or cellular recovery of primary CD138+ MM cells from 3 different patient samples (FIG. 4B). MM cells were treated with bortezomib (BTZ; 2.5 nM) for 48 hours after being incubated for 5 days either in the absence of stroma (Liquid), with or without the pan-RAR inhibitor AGN (1 μM), or in the presence of BM mesenchymal cells (Stroma), with or without the CYP26 inhibitor R115 (1 μM) or the CYP26-resistant retinoid IRX (1 μM). Clonogenic or cellular recovery was normalized to each condition in the absence of BTZ.
as §1
Clonogenic assays. After treatment, MM cells were collected, washed with PBS, and plated at a density of 5,000 cells/ml in 1 ml of 1.32% methylcellulose supplemented with 30% FBS, 10% BSA, L-glutamine, P/S, and 0.1 mM β-ME. Cells were plated in triplicate in 35-mm culture dishes, incubated at 37° C., and scored for the presence of colonies 14 days later.
A RA-low microenvironment induces BTZ resistance. To determine whether decreased retinoid signaling contributes to BTZ resistance within the BM niche, MM cell lines and MM CD138+ primary cells were incubated with BM stroma for 5 days, followed by BTZ treatment.

CD4+ T cells = experiment: in vivo T cell differentiation in mice (blood and spleen); parameters: species or system mouse; conditions: in vivo, data not shown
Protocol: To expand on the finding above, the in vivo effects of a RARα agonist on T cell differentiation was evaluated in a mouse model. Mice were treated with 100 μg of compound IRX5183 or an equivalent volume of DMSO (vehicle control) every other day for 10 days. Lymphocytes from the blood and spleen were then isolated and FoxP3 expression in CD4^+ T cells was assessed.

[3] = system: naive CD4+ CD25− FoxP3− cells; experiment: in vitro Th17 cell differentiation; type: cell-based, mouse; conditions: in vitro, data not shown
Protocol: (§3) To determine whether a RARα agonist could affect T cell differentiation, T cells were incubated with a RARα agonist to determine its effect on Foxp3 expression. Naive CD4^+ CD25^− FoxP3^− cells were purified from a Foxp3-GFP mouse using flow cytometry by sorting and isolating based upon a GFP^− phenotype. These cells were activated polyclonally with αCD3 in vitro in the presence of IL-2 and TGF-β. These cells were then cultured in media with various concentrations of compound IRX5183 (a RARα agonist) and the expression of FoxP3-GFP was analyzed by flow cytometry. The RARα agonist compound IRX5183 enhanced differentiation of immunosuppressive Treg cells and inhibited differentiation of inflammatory TH17 cells from naïve T cells in vitro (Table 2).

[4] = system: naive CD4+ CD25− FoxP3− cells; experiment: in vitro Treg cell differentiation (FoxP3-GFP, flow cytometry); type: cell-based, mouse; conditions: data not shown
Protocol: as §3

Kasumi-1 cells = experiment: CFU experiments, off and on stroma; type: cell-based; conditions: 10^−6 M ATRA, IRX5183, or 10^−7 M AM80
Excerpt: (§4) Data across three independent experiments.

OCI-AML3 cells = experiment: CFU experiments, off and on stroma; type: cell-based; conditions: 10^−6 M ATRA, IRX5183, or 10^−7 M AM80
Excerpt: as §4

NB4 cells = experiment: CFU experiments, off and on stroma; type: cell-based; conditions: 10^−7 M ATRA, IRX5183, or 10^−8 M AM80
Excerpt: as §4

[5] = system: FLT3/ITD acute myeloid leukemia (AML) cells; conditions: cited from earlier work
BM stromal cells = experiment: stromal Cyp26a1 upregulation by MM cells in coculture; type: cell-based, mouse; conditions: coculture with MM cells
Protocol: as §2
To confirm the role of paracrine Hedgehog on this interaction, smoothened (Smo), a membrane receptor that transduces SHH signaling, was knocked out at the genomic level in the mesenchymal compartment. For this, BM mesenchymal cells derived from Smo^fl/fl mice were transduced with a retroviral vector encoding Cre recombinase (Smo-KO stroma). Mouse Smo^fl/fl stromal cells transduced with an empty retroviral vector were used as a control (WT stroma). The transduced BM stromal cells were cocultured with MM cells for 24 hr.

[6] = system: relapse/refractory patients; conditions: in combination with BTZ; cited from earlier work

## CCc1ccc(C2=CC(C)(C)Sc3ccc(C#Cc4ccc(C(=O)O)cc4)cc32)cc1 [AGN194310]
[1]
  mRNA expression of B cell and PC markers (BCL6, BLIMP1, XBP1s, CHOP): mimicked the changes induced by BM stromal cells
MM cells
  surface CD138 expression: markedly decreased
[2]
  effect on BTZ sensitivity: decreasing BTZ sensitivity

## CCOc1c(Br)cc(C(=O)Nc2ccc(C(=O)O)cc2)cc1C(=O)c1ccc(C)cc1 [AGN196996]
CD4+ T cells
  Th17 cell numbers: increases Th17 cell numbers
  Treg cell numbers: decreases Treg cell numbers
[3]
  Th17 cell numbers: increases Th17 cell numbers
[4]
  Treg cell numbers: decreases Treg cell numbers

## CC1(C)CCC(C)(C)c2cc(NC(=O)c3ccc(C(=O)O)cc3)ccc21 [AM80, 4-[(5,6,7,8-tetrahydro-5,5,8,8-tetramethyl-2-naphthalenyl)carbamoyl]benzoic acid]
Kasumi-1 cells
  clonogenic growth (CFU), differentiation and elimination of AML: decrease in clonogenic growth compared to control
OCI-AML3 cells
  clonogenic growth (CFU), differentiation and elimination of AML: decrease in clonogenic growth compared to control
NB4 cells
  clonogenic growth (CFU), differentiation and elimination of AML: decrease in clonogenic growth compared to control
[5]
  differentiation and sensitivity to FLT3 inhibitors: differentiates FMS-like tyrosine kinase 3/internal tandem duplication (FLT3/ITD) acute myeloid leukemia (AML) cells and increase their sensitivity to FLT3 inhibitors

## CC1=C2C[C@H]3[C@@H](CC=C4C[C@@H](O)CC[C@@]43C)[C@@H]2CC[C@]12O[C@@H]1C[C@H](C)CN[C@H]1[C@H]2C [cyclopamine]
BM stromal cells
  stromal Cyp26a1 upregulation by MM cells: partially overcame stromal Cyp26a1 upregulation by MM cells

## c1cc(CN2CCCNCCNCCCNCC2)ccc1CN1CCCNCCNCCCNCC1 [plerixafor]
[6]
  response rates: improved response rates
